# Assay results reported in ChEMBL document CHEMBL1909046, “DrugMatrix in vitro pharmacology data”.
# Tests used:
# Cytochrome P450 2A6 = molecular target: T1, Cytochrome P450 2A6 (Homo sapiens, UniProt P11509); conditions: bti-tn-5b1-4; further: in other assays of this panel Not Active means under 50% inhibition at 10 µM
# T1 sequence (P11509 whole entry): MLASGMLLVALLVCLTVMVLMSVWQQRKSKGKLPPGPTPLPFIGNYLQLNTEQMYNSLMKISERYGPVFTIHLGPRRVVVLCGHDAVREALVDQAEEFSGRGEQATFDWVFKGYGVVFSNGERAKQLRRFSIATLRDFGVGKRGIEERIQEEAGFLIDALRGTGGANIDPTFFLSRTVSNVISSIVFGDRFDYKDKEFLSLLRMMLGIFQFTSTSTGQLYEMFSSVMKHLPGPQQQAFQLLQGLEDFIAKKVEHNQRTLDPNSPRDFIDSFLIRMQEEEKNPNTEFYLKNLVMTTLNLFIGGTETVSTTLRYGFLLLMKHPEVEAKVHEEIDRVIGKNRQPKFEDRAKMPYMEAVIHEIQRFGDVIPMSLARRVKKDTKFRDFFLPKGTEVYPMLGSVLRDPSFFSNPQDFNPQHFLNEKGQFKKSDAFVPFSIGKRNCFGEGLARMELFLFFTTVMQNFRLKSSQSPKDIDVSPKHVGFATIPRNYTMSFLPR
# [1] = DRUGMATRIX: Calcium Channel Type L, Phenylalkylamine radioligand binding (ligand: [3H] (-)-Desmethoxyverapamil (D-888)); type: cell membranes, Rattus norvegicus, Wistar, Brain, Membrane; conditions: Not Active = under 50% inhibition at 10 µM
# [2] = molecular target: 5-hydroxytryptamine receptor 1B (Rattus norvegicus, UniProt P28564); type: cell membranes, Wistar, Cerebral cortex, Membrane; further: in other assays of this panel Not Active means under 50% inhibition at 10 µM
# Chain of 5-hydroxytryptamine receptor 1B (P28564 whole entry): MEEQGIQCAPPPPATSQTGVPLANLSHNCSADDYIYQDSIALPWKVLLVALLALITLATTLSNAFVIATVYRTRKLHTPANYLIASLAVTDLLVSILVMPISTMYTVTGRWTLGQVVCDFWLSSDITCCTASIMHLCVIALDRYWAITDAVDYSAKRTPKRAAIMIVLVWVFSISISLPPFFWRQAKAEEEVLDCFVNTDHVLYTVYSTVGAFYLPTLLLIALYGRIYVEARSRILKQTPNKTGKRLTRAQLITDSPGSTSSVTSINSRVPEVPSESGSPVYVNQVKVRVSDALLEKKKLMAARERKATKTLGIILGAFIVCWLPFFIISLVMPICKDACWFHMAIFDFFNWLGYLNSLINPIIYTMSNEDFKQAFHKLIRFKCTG
# [3] = molecular target: C-C chemokine receptor type 2 (Homo sapiens, UniProt P41597); type: cell membranes, CHO-K1, Membrane; conditions: cho-k1; further: in other assays of this panel Not Active means under 50% inhibition at 10 µM
# Chain of C-C chemokine receptor type 2 (P41597 whole entry): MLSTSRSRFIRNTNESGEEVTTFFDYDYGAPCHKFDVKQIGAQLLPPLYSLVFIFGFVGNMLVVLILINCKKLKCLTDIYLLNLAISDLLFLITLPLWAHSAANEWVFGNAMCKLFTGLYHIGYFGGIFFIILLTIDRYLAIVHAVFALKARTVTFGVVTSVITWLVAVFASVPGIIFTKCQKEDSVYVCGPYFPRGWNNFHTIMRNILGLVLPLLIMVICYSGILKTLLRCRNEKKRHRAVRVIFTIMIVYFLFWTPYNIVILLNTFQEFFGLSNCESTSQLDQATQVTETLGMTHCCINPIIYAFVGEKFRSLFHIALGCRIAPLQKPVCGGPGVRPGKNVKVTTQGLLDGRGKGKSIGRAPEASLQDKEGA
# B2 bradykinin receptor = molecular target: T2, B2 bradykinin receptor (Homo sapiens, UniProt P30411); type: cell membranes, Membrane; conditions: chem-1; further: in other assays of this panel Not Active means under 50% inhibition at 10 µM
# T2 sequence (P30411 whole entry): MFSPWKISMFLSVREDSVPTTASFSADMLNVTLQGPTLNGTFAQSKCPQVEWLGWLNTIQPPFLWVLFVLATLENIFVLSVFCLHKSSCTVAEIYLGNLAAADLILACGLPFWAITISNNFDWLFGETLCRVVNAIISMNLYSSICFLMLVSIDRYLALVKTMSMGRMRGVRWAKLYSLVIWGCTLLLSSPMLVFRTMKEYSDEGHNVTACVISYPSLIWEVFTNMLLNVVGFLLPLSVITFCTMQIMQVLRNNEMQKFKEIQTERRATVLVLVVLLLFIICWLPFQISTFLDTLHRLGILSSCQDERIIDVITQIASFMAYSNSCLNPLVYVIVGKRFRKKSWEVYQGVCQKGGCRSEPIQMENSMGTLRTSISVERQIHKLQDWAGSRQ
# [4] = molecular target: C-C chemokine receptor type 5 (Homo sapiens, UniProt P51681); type: cell membranes, HEK293, Membrane; conditions: hek293; further: in other assays of this panel Not Active means under 50% inhibition at 10 µM
# Chain of C-C chemokine receptor type 5 (P51681 whole entry): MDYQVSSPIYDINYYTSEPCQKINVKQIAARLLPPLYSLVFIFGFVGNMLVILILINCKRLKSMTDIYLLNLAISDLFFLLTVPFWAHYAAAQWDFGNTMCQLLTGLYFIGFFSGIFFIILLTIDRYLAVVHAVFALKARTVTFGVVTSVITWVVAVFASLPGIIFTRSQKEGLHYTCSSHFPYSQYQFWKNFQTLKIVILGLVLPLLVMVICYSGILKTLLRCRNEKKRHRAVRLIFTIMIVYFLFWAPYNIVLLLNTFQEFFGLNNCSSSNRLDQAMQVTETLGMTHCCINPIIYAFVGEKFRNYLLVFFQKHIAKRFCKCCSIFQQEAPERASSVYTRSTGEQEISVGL
# Estrogen receptor = molecular target: T3, Estrogen receptor (Homo sapiens, UniProt P03372); conditions: sf9; further: in other assays of this panel Not Active means under 50% inhibition at 10 µM
# T3 sequence (P03372 whole entry): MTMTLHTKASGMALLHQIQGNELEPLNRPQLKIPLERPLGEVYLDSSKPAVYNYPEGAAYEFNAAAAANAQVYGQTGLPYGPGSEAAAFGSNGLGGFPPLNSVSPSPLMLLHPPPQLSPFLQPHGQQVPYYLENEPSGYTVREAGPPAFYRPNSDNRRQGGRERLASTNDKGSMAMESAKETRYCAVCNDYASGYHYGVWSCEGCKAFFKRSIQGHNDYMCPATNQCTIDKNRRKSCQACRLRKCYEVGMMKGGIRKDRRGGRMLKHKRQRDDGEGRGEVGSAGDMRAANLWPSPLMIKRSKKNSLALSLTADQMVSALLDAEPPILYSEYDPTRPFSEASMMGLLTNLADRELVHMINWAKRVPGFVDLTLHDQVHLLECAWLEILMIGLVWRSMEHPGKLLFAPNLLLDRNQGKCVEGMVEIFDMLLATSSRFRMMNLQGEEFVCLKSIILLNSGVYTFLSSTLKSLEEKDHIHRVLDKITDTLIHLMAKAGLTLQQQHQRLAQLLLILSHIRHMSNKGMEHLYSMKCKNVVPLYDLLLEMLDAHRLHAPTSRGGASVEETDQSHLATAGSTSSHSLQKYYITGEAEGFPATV
Molecule,IC50 (Cytochrome P450 2A6),Ki (Cytochrome P450 2A6),IC50 [1],Ki [1],IC50 [2],IC50 [3],IC50 (B2 bradykinin receptor),IC50 [4],IC50 (Estrogen receptor),IC50 ([1]; read-out: IC50) [nM],Ki ([1]; read-out: Ki) [nM],IC50 ([2]; read-out: IC50) [nM],Ki ([2]; read-out: Ki) [nM],Ki [2],Ki [3],Ki (B2 bradykinin receptor),Ki [4],Ki (Estrogen receptor)
CCN1C[C@]2(COC)[C@H](O)C[C@H](OC)[C@@]34[C@@H]5C[C@@]6(O)[C@H](OC(=O)c7ccccc7)[C@@H]5[C@@](OC(C)=O)([C@@H]([C@H](OC)[C@H]23)[C@@H]14)[C@@H](O)[C@@H]6OC [ACONITINE],Not Active,Not Active,Not Active,Not Active,Not Active,Not Active,Not Active,Not Active,Not Active,,,,,,,,,
COc1ccccc1OCCNCC(O)COc1cccc2[nH]c3ccccc3c12 (stereo not given) [CARVEDILOL],Not Active,Not Active,,,,Not Active,Not Active,Not Active,Not Active,389,378,1300,589,,,,,
CC(N)Cc1c[nH]c2ccc(OCc3cccs3)cc12 (stereo not given) [BW-723C86],Not Active,Not Active,,,,Not Active,Not Active,Not Active,Not Active,4340,4220,421,400,,,,,
"C=C(Cl)Cl [1,1-DICHLOROETHENE]",Not Active,Not Active,Not Active,Not Active,Not Active,Not Active,Not Active,Not Active,Not Active,,,,,,,,,
Nc1nc(N)c2nc(CNc3ccc(C(=O)N[C@@H](CCC(=O)O)C(=O)O)cc3)cnc2n1 [AMINOPTERIN],Not Active,Not Active,Not Active,Not Active,Not Active,Not Active,Not Active,Not Active,Not Active,,,,,,,,,
COPPER(II) OXIDE,Not Active,Not Active,Not Active,Not Active,Not Active,Not Active,Not Active,Not Active,Not Active,,,,,Not Active,Not Active,Not Active,Not Active,Not Active
CN(CCOc1ccc(C[C@H](Nc2ccccc2C(=O)c2ccccc2)C(=O)O)cc1)c1ccccn1,Not Active,Not Active,Not Active,Not Active,Not Active,Not Active,Not Active,Not Active,Not Active,,,,,,,,,
ClC1=C(Cl)[C@]2(Cl)[C@@H]3[C@@H]4C[C@@H]([C@H]5O[C@@H]45)[C@@H]3[C@@]1(Cl)C2(Cl)Cl [DIELDRIN],Not Active,Not Active,Not Active,Not Active,Not Active,Not Active,Not Active,Not Active,Not Active,,,,,,,,,
c1ccc(Cn2ccnc2)cc1,Not Active,Not Active,Not Active,Not Active,Not Active,Not Active,Not Active,Not Active,Not Active,,,,,,,,,
C=CCN1CC[C@]23c4c5ccc(O)c4O[C@H]2/C(=N/N=C2\CC[C@@]4(O)[C@H]6Cc7ccc(O)c8c7[C@@]4(CCN6CC=C)[C@H]2O8)CC[C@@]3(O)[C@H]1C5 [NALOXONAZINE],Not Active,Not Active,Not Active,Not Active,Not Active,Not Active,Not Active,Not Active,Not Active,,,,,,,,,
OC[C@H]1O[C@@H]2O[C@H]3[C@H](O)[C@@H](O)[C@@H](O[C@H]4[C@H](O)[C@@H](O)[C@@H](O[C@H]5[C@H](O)[C@@H](O)[C@@H](O[C@H]6[C@H](O)[C@@H](O)[C@@H](O[C@H]7[C@H](O)[C@@H](O)[C@@H](O[C@H]1[C@H](O)[C@H]2O)O[C@@H]7CO)O[C@@H]6CO)O[C@@H]5CO)O[C@@H]4CO)O[C@@H]3CO [ALFADEX],Not Active,Not Active,Not Active,Not Active,Not Active,Not Active,Not Active,Not Active,Not Active,,,,,,,,,
CC(C)NCC(O)COc1ccc(CC(N)=O)cc1 (stereo not given) [ATENOLOL],Not Active,Not Active,Not Active,Not Active,Not Active,Not Active,Not Active,Not Active,Not Active,,,,,,,,,
